Molecules are shown by their SMILES.

One data set relates to Caco-2 WT cells. Briefly: Bidirectional transport assay across Caco-2 WT monolayers. The following applies: WT Caco-2, 5 μM substrate, n = 3; for Efflux ratio: Papp(B-to-A)/Papp(A-to-B).
A further data set relates to Caco^Pgp−/− cells. As to the kind of experiment: Bidirectional transport assay across P-gp KO Caco-2 monolayers. The following applies: Caco^Pgp−/−, 5 μM substrate, n = 3.
Another data set has as its system Caco^BCRP−/− cells. Briefly: Bidirectional transport assay across BCRP KO Caco-2 monolayers. To be noted: Caco^BCRP−/−, 5 μM substrate, n = 3. On the technique in general: Caco-2 monolayers are a common model of the intestinal barrier.
For a further data set, the system named is Caco^MRP2−/− cells. As to the kind of experiment: Bidirectional transport assay across MRP2 KO Caco-2 monolayers. The following applies: Caco^MRP2−/−, 5 μM substrate, n = 3.
The test system of a further data set is Caco^Pgp−/−BCRP−/− cells. Briefly: Bidirectional transport assay across P-gp/BCRP double KO Caco-2 monolayers. The following applies: Caco^Pgp−/−BCRP−/−, 5 μM substrate, n = 3.
In a further data set the test system is Caco^Pgp−/−MRP2−/− cells. As to the kind of experiment: Bidirectional transport assay across P-gp/MRP2 double KO Caco-2 monolayers. To be noted: Caco^Pgp−/−MRP2−/−, 5 μM substrate, n = 3.
Data set [1] relates to Caco^MRP2−/−BCRP−/− cells. Briefly: Bidirectional transport assay across MRP2/BCRP double KO Caco-2 monolayers. To be noted: Caco^MRP2−/−BCRP−/−, 5 μM substrate, n = 3.
Experimental: (§4) For MRP2, the nonfluorescent compound CDCFDA was used as the probe substrate. […] After treatment, samples were transferred to black-walled 96-well assay plates. A standard curve of 2-fold serial dilution from 10 µM CDCF was generated. The CDCF concentration was measured based on the fluorescence in a microplate fluorescence reader (Tecan, Switzerland) set at 485 nm and 530 nm for the excitation and emission wavelengths, respectively.
In data set [2] the test system is BCRP single- and double-KO Caco-2 cell lines. Briefly: Bidirectional transport assay, BCRP single- and double-KO cell lines taken together. The following applies: 5 μM substrate.
Data set [3] deals with MRP2 single- and double-KO Caco-2 cell lines. Briefly: Bidirectional transport assay, MRP2 single- and double-KO cell lines taken together. The following applies: 5 μM substrate.
Experimental: For MRP2, the nonfluorescent compound CDCFDA was used as the probe substrate. This compound passively diffuses into cells and is hydrolyzed by intracellular esterases to the fluorescent product, CDCF, which is then rapidly excreted by MRP2 ([Sampson et al., 2015]). After treatment, samples were transferred to black-walled 96-well assay plates. A standard curve of 2-fold serial dilution from 10 µM CDCF was generated. The CDCF concentration was measured based on the fluorescence in a microplate fluorescence reader (Tecan, Switzerland) set at 485 nm and 530 nm for the excitation and emission wavelengths, respectively.
The test system of a further data set is MDCKⅡ-MDR1. Further details: method as in Agarwal et al., 2007. To be noted: MDCKⅡ-MDR1 treated with P-gp inhibitors; ref Agarwal et al., 2007; cited from earlier work.
Data set [4] relates to MRP2. Also noted: method as in Bierman et al., 2010; Holmstock et al., 2018. To be noted: 5 μM and 10 µM; ref Bierman et al., 2010; Holmstock et al., 2018; cited from earlier work.
Data set [5] in a line: Bidirectional transport assay across Caco-2 WT monolayers. The following applies: human; for Papp A→B at 1 h, 5 μM / Papp B→A at 1 h, 5 μM: Caco-2, pH 7.4.
Experimental: as §4
The nature of data set [6]: Bidirectional transport assay across P-gp KO Caco-2 monolayers. The following applies: human, pH 7.4.
Data set [7] in a line: Bidirectional transport assay across BCRP KO Caco-2 monolayers. To be noted: human; for Papp A→B at 1 h, 5 μM / Papp B→A at 1 h, 5 μM: pH 7.4.
Experimental: as §4
A short description of data set [8]: Bidirectional transport assay across MRP2 KO Caco-2 monolayers. The following applies: human; for Papp A→B at 1 h, 5 μM: pH 7.4, Papp A-to-B, Caco^MRP2−/−, 5 μM substrate, 37°C, HBSS pH 7.4, n = 3.
Experimental: as §4
The nature of data set [9]: Bidirectional transport assay across P-gp/BCRP double KO Caco-2 monolayers. The following applies: human, pH 7.4.
Experimental: as §4
Data set [10] is described as follows: Bidirectional transport assay across P-gp/MRP2 double KO Caco-2 monolayers. To be noted: human, pH 7.4.
Experimental: as §4
Data set [11] is described as follows: Bidirectional transport assay across MRP2/BCRP double KO Caco-2 monolayers. To be noted: human; for Papp A→B at 1 h, 5 μM: pH 7.4, Papp A-to-B, Caco^MRP2−/−BCRP−/−, 5 μM substrate, 37°C, HBSS pH 7.4, n = 3.
Experimental: as §4
Data set [12] can be described thus: Bidirectional transport assay, P-gp single- and double-KO cells taken together. The data set is classed as in vitro ADME. To be noted: human, pH 7.4, 5 μM substrate. As to the method:
(§1) The medium was replaced every second day.
(§2) All these studies were conducted by following similar procedures. […] Then, HBSS was aspirated from both sides.
(§3) The flow rate was 0.3 mL/min.

The target in data set [13] is T1, P-gp, BCRP, and MRP2 efflux transporters (Homo sapiens, UniProt Q92887).
T1 construct: endogenous in cells; host or cells: Caco-2 WT and CRISPR/Cas9 transporter-knockout Caco-2 clones
Briefly: Transporter substrate identification with the panel of WT and KO Caco-2 cells. Format: in vitro ADME. The following applies: 5 μM. As to the method:
as §1, §2, §3

Data set [14] relates to P-gp, BCRP, and MRP2 efflux transporters. The description is as above. Format: in vitro ADME, human. The following applies: 5 μM; ER ≥ 2 suggests active transport. The protocol: as §1, §2, §3
The subject of data set [15] is MRP2. Further details: method as in Koenig et al., 2010; Swedrowska et al., 2017. The following applies: 50 µM; Caco-2 cells; ref Koenig et al., 2010; Swedrowska et al., 2017; cited from earlier work.
A further data set has as its system BCRP transporter. Further details: method as in Mease et al., 2012. To be noted: 1 µM inhibitor; Caco-2; ref Mease et al., 2012; cited from earlier work.
The subject of another data set is P-gp. Also noted: method as in Mease et al., 2012. To be noted: 10 µM inhibitor; Caco-2; ref Mease et al., 2012; cited from earlier work.

T1 sequence (Q92887 whole entry): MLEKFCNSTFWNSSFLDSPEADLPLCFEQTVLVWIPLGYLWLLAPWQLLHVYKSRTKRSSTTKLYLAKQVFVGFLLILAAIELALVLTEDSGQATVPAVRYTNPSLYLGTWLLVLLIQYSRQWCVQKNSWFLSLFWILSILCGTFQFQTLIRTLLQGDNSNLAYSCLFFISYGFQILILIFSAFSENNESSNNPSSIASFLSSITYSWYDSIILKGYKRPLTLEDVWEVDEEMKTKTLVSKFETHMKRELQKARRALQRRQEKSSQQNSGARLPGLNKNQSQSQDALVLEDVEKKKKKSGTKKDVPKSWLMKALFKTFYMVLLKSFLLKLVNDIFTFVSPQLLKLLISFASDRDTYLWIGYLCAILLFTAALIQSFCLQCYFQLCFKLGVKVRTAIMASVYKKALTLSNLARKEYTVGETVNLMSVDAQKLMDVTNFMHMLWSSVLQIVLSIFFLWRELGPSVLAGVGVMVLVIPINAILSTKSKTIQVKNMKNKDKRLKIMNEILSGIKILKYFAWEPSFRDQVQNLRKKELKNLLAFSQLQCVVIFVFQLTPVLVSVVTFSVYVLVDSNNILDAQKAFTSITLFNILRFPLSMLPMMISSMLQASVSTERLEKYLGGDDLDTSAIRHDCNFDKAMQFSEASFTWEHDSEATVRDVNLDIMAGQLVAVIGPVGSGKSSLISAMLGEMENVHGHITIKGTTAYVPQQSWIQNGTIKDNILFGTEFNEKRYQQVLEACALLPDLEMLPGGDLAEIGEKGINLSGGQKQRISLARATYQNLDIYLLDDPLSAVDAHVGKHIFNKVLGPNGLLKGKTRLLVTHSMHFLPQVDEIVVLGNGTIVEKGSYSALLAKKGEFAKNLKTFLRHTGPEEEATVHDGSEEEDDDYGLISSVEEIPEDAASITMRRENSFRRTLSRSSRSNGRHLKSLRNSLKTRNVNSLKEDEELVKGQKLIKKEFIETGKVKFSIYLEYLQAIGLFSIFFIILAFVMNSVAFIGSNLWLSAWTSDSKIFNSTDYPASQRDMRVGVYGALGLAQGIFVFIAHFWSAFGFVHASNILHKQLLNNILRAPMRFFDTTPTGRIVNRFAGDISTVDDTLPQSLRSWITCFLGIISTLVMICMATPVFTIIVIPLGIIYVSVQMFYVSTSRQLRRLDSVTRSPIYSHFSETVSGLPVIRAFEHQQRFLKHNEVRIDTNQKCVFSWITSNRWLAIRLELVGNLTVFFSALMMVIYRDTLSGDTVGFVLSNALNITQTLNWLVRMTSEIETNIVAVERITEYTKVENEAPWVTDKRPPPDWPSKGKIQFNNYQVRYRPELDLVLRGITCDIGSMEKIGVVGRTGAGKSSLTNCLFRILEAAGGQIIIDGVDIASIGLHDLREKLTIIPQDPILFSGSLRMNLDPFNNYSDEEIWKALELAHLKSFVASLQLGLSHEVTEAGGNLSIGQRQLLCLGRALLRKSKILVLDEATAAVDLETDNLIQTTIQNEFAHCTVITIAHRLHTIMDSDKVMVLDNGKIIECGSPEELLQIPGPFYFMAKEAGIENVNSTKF
Experimental for Caco-2 WT cells: as §4
Experimental for Caco^BCRP−/− cells: as §4
Experimental for Caco^MRP2−/− cells: as §4
Experimental for Caco^Pgp−/−BCRP−/− cells: as §4
Experimental for Caco^Pgp−/−MRP2−/− cells: as §4

As to `C[C@]12CC[C@@H]3c4ccc(OS(=O)(=O)O)cc4CC[C@H]3[C@@H]1CCC2=O` [Estrone 3-Sulfate, estrone 3-sulfate], the “Papp A-to-B” value is 0.67 ± 0.12 ×10^−6cm/s with Caco-2 WT cells (1 h, 37°C, HBSS pH 7.4); 1.53 ± 0.24 ×10^−6cm/s in the data set on Caco^Pgp−/− cells (1 h, 37°C, HBSS pH 7.4); 1.15 ± 0.11 ×10^−6cm/s in the data set with Caco^BCRP−/− cells (1 h, 37°C, HBSS pH 7.4); 2.91 ± 0.32 ×10^−6cm/s in the data set with Caco^MRP2−/− cells (1 h, 37°C, HBSS pH 7.4); 1.88 ± 0.02 ×10^−6cm/s in the data set with Caco^Pgp−/−BCRP−/− cells (1 h, 37°C, HBSS pH 7.4); 3.23 ± 0.08 ×10^−6cm/s with Caco^Pgp−/−MRP2−/− cells (1 h, 37°C, HBSS pH 7.4). In data set [1] (1 h, 37°C, HBSS pH 7.4), the “Papp A-to-B” value was 0.97 ± 0.04 ×10^−6cm/s. Moreover, the “Papp B-to-A” value in the data set on Caco-2 WT cells (1 h, 37°C, HBSS pH 7.4) is listed as 10.87 ± 0.20 ×10^−6cm/s; in the data set with Caco^Pgp−/− cells (1 h, 37°C, HBSS pH 7.4) it was 22.48 ± 1.01 ×10^−6cm/s; in the data set with Caco^BCRP−/− cells (1 h, 37°C, HBSS pH 7.4) it was 1.58 ± 0.08 ×10^−6cm/s; in the data set with Caco^MRP2−/− cells (1 h, 37°C, HBSS pH 7.4) it was 15.32 ± 3.10 ×10^−6cm/s; in the data set with Caco^Pgp−/−BCRP−/− cells (1 h, 37°C, HBSS pH 7.4) it was 1.54 ± 0.30 ×10^−6cm/s; with Caco^Pgp−/−MRP2−/− cells (1 h, 37°C, HBSS pH 7.4), 25.34 ± 2.06 ×10^−6cm/s. For the same compound, the “Papp B-to-A” value in [1] (1 h, 37°C, HBSS pH 7.4) was 0.92 ± 0.49 ×10^−6cm/s. Further, the Efflux ratio in the data set on Caco-2 WT cells is given as 16.65 ± 2.90; with Caco-2 WT cells (listed as E3S) it was 16.6; with Caco^Pgp−/− cells, 14.90 ± 1.63; with Caco^BCRP−/− cells, 1.36 ± 0.18; in the data set on Caco^MRP2−/− cells it was 5.24 ± 0.59; with Caco^Pgp−/−BCRP−/− cells it was 0.820 ± 0.15. For the same compound, the Efflux ratio with Caco^Pgp−/−MRP2−/− cells is 7.830 ± 0.46; in data set [1] it was 0.96 ± 0.51; in data set [2] it was 0.8–1.3. Also, the “Efflux ratio compared with WT” value in [3] is listed as “reduced significantly”.
What is called Papp A→B is the apparent permeability from the apical to the basolateral side of a cell layer. Lower therefore signals slow passage. For orientation: Papp B→A means the apparent permeability from the basolateral to the apical side of a cell layer. For the compound `Cc1cccc(C)c1OCC(=O)N[C@@H](Cc1ccccc1)[C@@H](O)C[C@H](Cc1ccccc1)NC(=O)[C@H](C(C)C)N1CCCNC1=O` [Lopinavir, lopinavir], the “Increase of Papp (A-B)” value in the data set on MDCKⅡ-MDR1 is recorded as “up to 6 folds”. Moreover, the “Transport activity of MRP2” value in the data set with MRP2 [4] is given as “inhibited”. The Papp A→B at 1 h, 5 μM in data set [5] is 3.25 ± 0.59 ×10⁻⁶ cm/s; in data set [6], 10.2 ± 0.27 ×10⁻⁶ cm/s; in data set [7], 5.79 ± 0.64 ×10⁻⁶ cm/s; in [8], about 1 ×10⁻⁶ cm/s; in data set [9], 15.2 ± 1.44 ×10⁻⁶ cm/s; in [10], 13.8 ± 1.01 ×10⁻⁶ cm/s. The same compound showed a Papp A→B at 1 h, 5 μM in data set [11] of about 1 ×10⁻⁶ cm/s. Further, the basolateral-to-apical permeability (Papp B→A) at 1 h, 5 μM in data set [5] turned out to be 24.5 ± 2.04 ×10⁻⁶ cm/s; in data set [6], 6.59 ± 0.62 ×10⁻⁶ cm/s; in [7], 18.4 ± 0.98 ×10⁻⁶ cm/s; in [8] (pH 7.4), 20.1 ± 2.26 ×10⁻⁶ cm/s; in data set [9], 10.3 ± 0.82 ×10⁻⁶ cm/s; in data set [10] it was 11.5 ± 0.96 ×10⁻⁶ cm/s. This compound showed an apparent permeability from basolateral to apical (Papp B→A) at 1 h, 5 μM in data set [11] (pH 7.4) of 19 ± 3.05 ×10⁻⁶ cm/s.
The efflux ratio is a quotient of directional permeabilities that is used to spot active efflux. For `Cc1c(O)cccc1C(=O)N[C@@H](CSc1ccccc1)[C@H](O)CN1C[C@H]2CCCC[C@H]2C[C@H]1C(=O)NC(C)(C)C` [Nelfinavir], the efflux ratio at 1 h, 5 μM was about 1 in data set [12]; 4.47 ± 1.19 in [5] (Caco-2, pH 7.4, Efflux ratio, WT Caco-2, 5 μM substrate, Papp(B-to-A)/Papp(A-to-B), n = 3); 0.41 ± 0.04 in data set [6]; about 2 in data set [7] (pH 7.4, Efflux ratio, Caco^BCRP−/−, 5 μM substrate, n = 3); 3.25 ± 0.31 in data set [8] (pH 7.4); 0.43 ± 0.09 in data set [9]. Further, the efflux ratio at 1 h, 5 μM in data set [10] turned out to be 1.07 ± 0.42; in data set [11] (pH 7.4), 6.41 ± 0.35. The “Substrate of MRP2 (conclusion from ERs in KO cells)” value in data set [13] is recorded as “cannot mediate”. For the same compound, the “Efflux transporter substrate identification (conclusion from ERs in WT and KO cells)” value in [14] is recorded as “P-gp was the main transporter”. Moreover, the Papp A→B at 1 h, 5 μM in data set [5] was determined as 2.78 ± 0.39 ×10⁻⁶ cm/s; in data set [6], 4.17 ± 0.17 ×10⁻⁶ cm/s; in data set [7], 2.21 ± 0.41 ×10⁻⁶ cm/s; in data set [8], 4.53 ± 0.26 ×10⁻⁶ cm/s; in [9], 7.54 ± 0.24 ×10⁻⁶ cm/s; in data set [10] it was 4.23 ± 0.22 ×10⁻⁶ cm/s. For the same compound, in [11], the Papp A→B at 1 h, 5 μM was found to be 2.79 ± 0.28 ×10⁻⁶ cm/s. The Papp B→A at 1 h, 5 μM was found to be 12.2 ± 1.86 ×10⁻⁶ cm/s in [5]; 2.18 ± 0.43 ×10⁻⁶ cm/s in data set [6]; 4.88 ± 0.17 ×10⁻⁶ cm/s in [7]; 14.7 ± 0.99 ×10⁻⁶ cm/s in [8] (pH 7.4); 3.22 ± 0.62 ×10⁻⁶ cm/s in data set [9]; 4.51 ± 0.63 ×10⁻⁶ cm/s in [10]. Further, the apparent permeability from basolateral to apical (Papp B→A) at 1 h, 5 μM in data set [11] (pH 7.4) turned out to be 17.9 ± 1.89 ×10⁻⁶ cm/s. Besides, the Efflux ratio in the data set on Caco^BCRP−/− cells was found to be 2.25 ±0.34.
`O=C1OC(c2ccc(O)c(S(=O)(=O)O)c2)(c2ccc(O)c(S(=O)(=O)O)c2)c2c(Br)c(Br)c(Br)c(Br)c21` [bromsulphthalein]: the “Effect on darunavir efflux transport” value with MRP2 [15] is listed as “significant suppression”.
For the compound `COc1ccc2c3c([nH]c2c1)[C@H](C=C(C)C)N1C(=O)[C@@H]2CCCN2C(=O)[C@@H]1C3` [fumitremorgin C], the “Inhibition of the BCRP transporter” value in the data set with BCRP transporter is listed as “selectively inhibited”. Further, in the data set with P-gp, the “Inhibition of P-gp” value was “only partially inhibited”.

These data come from publication PMC9649518, “Knockout of ABC transporters by CRISPR/Cas9 contributes to reliable and accurate transporter substrate identification for drug discovery” (Frontiers in Pharmacology, 2022).
